# From patent publication US12723063B2, “GIPR-agonist compounds” (Eli Lilly and Company, priority 2019, dated 2026)
# *1 amine or outer side, *2 acyl side, *3 side chain or, on linkers, in order; H or OH if unused. Where a SMILES comes first, the peptide text is derived from it. Side-chain parts run from the residue outwards. [ ]: non-standard residue; d: D form. The star is where a group is joined. C20 diacid = O=C(O)CCCCCCCCCCCCCCCCCCC(=O)*; C18 diacid = O=C(O)CCCCCCCCCCCCCCCCC(=O)*; αMePhe(2-F) = C[C@](N)(Cc1ccccc1F)C(=O)O; γGlu = O=C(O)[C@H](CCC(=O)[*:2])N[*:1]; αMeY = C[C@](N)(Cc1ccc(O)cc1)C(=O)O; 4Pal = N[C@@H](Cc1ccncc1)C(=O)O; αMeL = CC(C)C[C@](C)(N)C(=O)O; Orn = NCCC[C@H](N)C(=O)O; AEEA = NCCOCCOCC(=O)O; Aib = CC(C)(N)C(=O)O
# Molecular target: T1, human GLP-1R (Homo sapiens, UniProt P43220)
# T1 construct: expressed in transfected cells; crude membranes
# Assay: [125I]-GLP-1 binding, SPA with WGA beads, 0.1% bacitracin
# Settings: geometric mean, read-out: hGLP1R Ki
# Outline: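 Binding buffer was 25 mM HEPES pH 7.4 with 2.5 mM CaCl2, 1 mM MgCl2, 0.1% (w/v) bacitracin, 0.003% Tween-20 and EDTA-free protease inhibitors. Four-parameter regression gave IC50, converted to Ki (geometric mean, SEM, n independent days).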
# T1 sequence (P43220 24-463): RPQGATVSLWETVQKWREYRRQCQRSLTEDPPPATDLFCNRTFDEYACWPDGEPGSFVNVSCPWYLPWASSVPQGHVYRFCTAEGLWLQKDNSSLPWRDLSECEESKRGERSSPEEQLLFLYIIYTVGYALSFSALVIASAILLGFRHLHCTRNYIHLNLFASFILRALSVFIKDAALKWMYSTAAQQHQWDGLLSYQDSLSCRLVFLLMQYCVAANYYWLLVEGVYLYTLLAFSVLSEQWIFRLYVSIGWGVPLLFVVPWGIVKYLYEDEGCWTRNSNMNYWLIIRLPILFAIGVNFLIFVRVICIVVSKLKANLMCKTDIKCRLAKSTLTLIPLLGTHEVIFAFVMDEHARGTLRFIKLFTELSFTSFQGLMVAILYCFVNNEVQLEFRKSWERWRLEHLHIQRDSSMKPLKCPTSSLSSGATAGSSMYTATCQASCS
row,SMILES,Ki [nM]
1,CC[C@H](C)[C@H](NC(=O)[C@H](CO)NC(=O)[C@H](Cc1ccc(O)cc1)NC(=O)[C@H](CC(=O)O)NC(=O)[C@H](CO)NC(=O)[C@@H](NC(=O)[C@H](Cc1ccccc1)NC(=O)[C@@H](NC(=O)CNC(=O)[C@H](CCC(=O)O)NC(=O)[C@@H](C)NC(=O)[C@@H](N)Cc1ccc(O)cc1)[C@@H](C)O)[C@@H](C)CC)C(=O)N[C@@H](CC(C)C)C(=O)N[C@@H](CC(C)C)C(=O)N[C@@H](CC(=O)O)C(=O)N[C@@H](CCCCN)C(=O)N[C@@H](CCCCNC(=O)COCCOCCNC(=O)COCCOCCNC(=O)CC[C@H](NC(=O)CCCCCCCCCCCCCCCCCCC(=O)O)C(=O)O)C(=O)N[C@@H](C)C(=O)N[C@@H](CCC(N)=O)C(=O)N[C@@H](CCC(N)=O)C(=O)N[C@@H](CC(=O)O)C(=O)N[C@@H](Cc1ccccc1)C(=O)N[C@H](C(=O)N[C@@H](CC(N)=O)C(=O)N[C@@H](Cc1c[nH]c2ccccc12)C(=O)N[C@@H](CC(C)C)C(=O)N[C@@H](CC(C)C)C(=O)N[C@@H](C)C(=O)N[C@@H](CCC(N)=O)C(=O)NCC(=O)N1CCC[C@H]1C(=O)N[C@@H](CO)C(=O)N[C@@H](CO)C(=O)NCC(=O)N[C@@H](C)C(=O)N1CCC[C@H]1C(=O)N1CCC[C@H]1C(=O)N1CCC[C@H]1C(=O)N[C@@H](CO)C(N)=O)C(C)C [Example 11] (H-Y[dA]EGTFISDYSILLDKK([AEEA-AEEA-γGlu-C20 diacid])AQQDFVNWLLAQGPSSGAPPPS-NH2),85.9
2,CC[C@H](C)[C@H](NC(=O)[C@H](CO)NC(=O)[C@H](Cc1ccc(O)cc1)NC(=O)[C@H](CC(=O)O)NC(=O)[C@H](CO)NC(=O)[C@@H](NC(=O)[C@H](Cc1ccccc1)NC(=O)[C@@H](NC(=O)CNC(=O)[C@H](CCC(=O)O)NC(=O)[C@@H](C)NC(=O)[C@@H](N)Cc1ccc(O)cc1)[C@@H](C)O)[C@@H](C)CC)C(=O)N[C@@H](CC(C)C)C(=O)N[C@@H](CC(C)C)C(=O)N[C@@H](CC(=O)O)C(=O)N[C@@H](CCCCN)C(=O)N[C@@H](CCCCNC(=O)COCCOCCNC(=O)COCCOCCNC(=O)CC[C@H](NC(=O)CCCCCCCCCCCCCCCCC(=O)O)C(=O)O)C(=O)N[C@@H](C)C(=O)N[C@@H](CCC(N)=O)C(=O)NC(C)(C)C(=O)N[C@@H](CCC(=O)O)C(=O)N[C@@H](Cc1ccccc1)C(=O)N[C@H](C(=O)N[C@@H](CCC(N)=O)C(=O)N[C@@H](Cc1c[nH]c2ccccc12)C(=O)N[C@@H](CC(C)C)C(=O)N[C@@H](CC(C)C)C(=O)N[C@@H](C)C(=O)NCC(=O)NCC(=O)N1CCC[C@H]1C(=O)N[C@@H](CO)C(=O)N[C@@H](CO)C(=O)NCC(=O)N[C@@H](C)C(=O)N1CCC[C@H]1C(=O)N1CCC[C@H]1C(=O)N1CCC[C@H]1C(=O)N[C@@H](CO)C(N)=O)C(C)C [Example 27] (H-Y[dA]EGTFISDYSILLDKK([AEEA-AEEA-γGlu-C18 diacid])AQ[Aib]EFVQWLLAGGPSSGAPPPS-NH2),23.2
3,CC[C@H](C)[C@H](NC(=O)[C@H](Cc1ccccc1)NC(=O)[C@@H](NC(=O)CNC(=O)[C@H](CCC(=O)O)NC(=O)C(C)(C)NC(=O)[C@@H](N)Cc1ccc(O)cc1)[C@@H](C)O)C(=O)N[C@@H](CO)C(=O)N[C@@H](CC(=O)O)C(=O)N[C@@H](Cc1ccc(O)cc1)C(=O)N[C@@H](CO)C(=O)N[C@H](C(=O)N[C@@](C)(CC(C)C)C(=O)N[C@@H](CC(C)C)C(=O)N[C@@H](CC(=O)O)C(=O)N[C@@H](CCCCN)C(=O)N[C@@H](CCCCNC(=O)COCCOCCNC(=O)COCCOCCNC(=O)CC[C@H](NC(=O)CCCCCCCCCCCCCCCCCCC(=O)O)C(=O)O)C(=O)N[C@@H](Cc1c[nH]cn1)C(=O)N[C@@H](CCC(N)=O)C(=O)NC(C)(C)C(=O)N[C@@H](CC(=O)O)C(=O)N[C@@H](Cc1ccccc1)C(=O)N[C@H](C(=O)N[C@@H](CCC(=O)O)C(=O)N[C@@](C)(Cc1ccc(O)cc1)C(=O)N[C@@H](CC(C)C)C(=O)N[C@@H](CC(C)C)C(=O)N[C@@H](CCC(=O)O)C(=O)N[C@@H](C)C(=O)NCC(=O)N1CCC[C@H]1C(=O)N[C@@H](CO)C(=O)N[C@@H](CO)C(=O)NCC(=O)N[C@@H](C)C(=O)N1CCC[C@H]1C(=O)N1CCC[C@H]1C(=O)N1CCC[C@H]1C(=O)N[C@@H](CO)C(N)=O)C(C)C)[C@@H](C)CC [Example 90] (H-Y[Aib]EGTFISDYSI[αMeL]LDKK([AEEA-AEEA-γGlu-C20 diacid])HQ[Aib]DFVE[αMeY]LLEAGPSSGAPPPS-NH2),102
4,CC[C@H](C)[C@H](NC(=O)[C@H](CO)NC(=O)[C@H](Cc1ccc(O)cc1)NC(=O)[C@H](CC(=O)O)NC(=O)[C@H](CO)NC(=O)[C@@H](NC(=O)[C@](C)(Cc1ccccc1F)NC(=O)[C@@H](NC(=O)CNC(=O)[C@H](CCC(=O)O)NC(=O)C(C)(C)NC(=O)[C@@H](N)Cc1ccc(O)cc1)[C@@H](C)O)[C@@H](C)CC)C(=O)N[C@@H](C)C(=O)N[C@@H](CC(C)C)C(=O)N[C@@H](CC(=O)O)C(=O)N[C@@H](CCCCN)C(=O)N[C@@H](CCCCNC(=O)COCCOCCNC(=O)COCCOCCNC(=O)CC[C@H](NC(=O)CCCCCCCCCCCCCCCCCCC(=O)O)C(=O)O)C(=O)N[C@@H](Cc1c[nH]cn1)C(=O)N[C@@H](CCC(N)=O)C(=O)NC(C)(C)C(=O)N[C@@H](CCC(=O)O)C(=O)N[C@@H](Cc1ccccc1)C(=O)N[C@H](C(=O)N[C@@H](CC(N)=O)C(=O)N[C@@H](Cc1c[nH]c2ccccc12)C(=O)N[C@@H](CC(C)C)C(=O)N[C@@H](CC(C)C)C(=O)N[C@@H](C)C(=O)NCC(=O)NCC(=O)N1CCC[C@H]1C(=O)N[C@@H](CO)C(=O)N[C@@H](CO)C(=O)NCC(=O)N[C@@H](C)C(=O)N1CCC[C@H]1C(=O)N1CCC[C@H]1C(=O)N1CCC[C@H]1C(=O)N[C@@H](CO)C(N)=O)C(C)C [Example 26] (H-Y[Aib]EGT[αMePhe(2-F)]ISDYSIALDKK([AEEA-AEEA-γGlu-C20 diacid])HQ[Aib]EFVNWLLAGGPSSGAPPPS-NH2),16.5
5,CC[C@H](C)[C@H](NC(=O)[C@H](CCCN)NC(=O)[C@H](CC(=O)O)NC(=O)[C@H](CC(C)C)NC(=O)[C@](C)(CC(C)C)NC(=O)[C@@H](NC(=O)[C@H](CO)NC(=O)[C@H](Cc1ccc(O)cc1)NC(=O)[C@H](CC(=O)O)NC(=O)[C@H](CO)NC(=O)[C@@H](NC(=O)[C@H](Cc1ccccc1)NC(=O)[C@@H](NC(=O)CNC(=O)[C@H](CCC(=O)O)NC(=O)C(C)(C)NC(=O)[C@@H](N)Cc1ccc(O)cc1)[C@@H](C)O)[C@@H](C)CC)[C@@H](C)CC)C(=O)N[C@@H](Cc1c[nH]cn1)C(=O)N[C@@H](CCC(N)=O)C(=O)NC(C)(C)C(=O)N[C@@H](CCC(=O)O)C(=O)N[C@@H](Cc1ccccc1)C(=O)N[C@H](C(=O)N[C@@H](CCC(=O)O)C(=O)N[C@@H](Cc1ccc(O)cc1)C(=O)N[C@@H](CCCCNC(=O)COCCOCCNC(=O)COCCOCCNC(=O)CC[C@H](NC(=O)CCCCCCCCCCCCCCCCCCC(=O)O)C(=O)O)C(=O)N[C@@H](CC(C)C)C(=O)N[C@@H](CCC(=O)O)C(=O)N[C@H](C(=O)NCC(=O)N1CCC[C@H]1C(=O)N[C@@H](CO)C(=O)N[C@@H](CO)C(=O)NCC(=O)N[C@@H](C)C(=O)N1CCC[C@H]1C(=O)N1CCC[C@H]1C(=O)N1CCC[C@H]1C(=O)N[C@@H](CO)C(N)=O)[C@@H](C)O)C(C)C [Example 105] (H-Y[Aib]EGTFISDYSI[αMeL]LD[Orn]IHQ[Aib]EFVEYK([AEEA-AEEA-γGlu-C20 diacid])LETGPSSGAPPPS-NH2),> 910
6,CC[C@H](C)[C@H](NC(=O)[C@H](CO)NC(=O)[C@H](Cc1ccc(O)cc1)NC(=O)[C@H](CC(=O)O)NC(=O)[C@H](CO)NC(=O)[C@@H](NC(=O)[C@](C)(Cc1ccccc1F)NC(=O)[C@@H](NC(=O)CNC(=O)[C@H](CCC(=O)O)NC(=O)C(C)(C)NC(=O)[C@@H](N)Cc1ccc(O)cc1)[C@@H](C)O)[C@@H](C)CC)C(=O)N[C@@H](C)C(=O)N[C@@H](CC(C)C)C(=O)N[C@@H](CC(=O)O)C(=O)N[C@@H](CCCCN)C(=O)N[C@H](C(=O)N[C@@H](Cc1c[nH]cn1)C(=O)N[C@@H](CCC(N)=O)C(=O)NC(C)(C)C(=O)N[C@@H](CC(=O)O)C(=O)N[C@@H](Cc1ccccc1)C(=O)N[C@H](C(=O)N[C@@H](CCC(=O)O)C(=O)N[C@@H](Cc1ccncc1)C(=O)N[C@@H](CCCCNC(=O)COCCOCCNC(=O)COCCOCCNC(=O)CC[C@H](NC(=O)CCCCCCCCCCCCCCCCCCC(=O)O)C(=O)O)C(=O)N[C@@H](CC(C)C)C(=O)N[C@@H](CCC(=O)O)C(=O)NCC(=O)NCC(=O)N1CCC[C@H]1C(=O)N[C@@H](CO)C(=O)N[C@@H](CO)C(=O)NCC(=O)N[C@@H](C)C(=O)N1CCC[C@H]1C(=O)N1CCC[C@H]1C(=O)N1CCC[C@H]1C(=O)N[C@@H](CO)C(N)=O)C(C)C)[C@@H](C)CC [Example 112] (H-Y[Aib]EGT[αMePhe(2-F)]ISDYSIALDKIHQ[Aib]DFVE[4Pal]K([AEEA-AEEA-γGlu-C20 diacid])LEGGPSSGAPPPS-NH2),> 908
7,CC[C@H](C)[C@H](NC(=O)[C@H](CO)NC(=O)[C@H](Cc1ccc(O)cc1)NC(=O)[C@H](CC(=O)O)NC(=O)[C@H](CO)NC(=O)[C@@H](NC(=O)[C@H](Cc1ccccc1)NC(=O)[C@@H](NC(=O)CNC(=O)[C@H](CCC(=O)O)NC(=O)[C@@H](C)NC(=O)[C@@H](N)Cc1ccc(O)cc1)[C@@H](C)O)[C@@H](C)CC)C(=O)N[C@@H](CC(C)C)C(=O)N[C@@H](CC(C)C)C(=O)N[C@@H](CC(=O)O)C(=O)N[C@@H](CCCCN)C(=O)N[C@@H](CCCCNC(=O)COCCOCCNC(=O)COCCOCCNC(=O)CC[C@H](NC(=O)CCCCCCCCCCCCCCCCCCC(=O)O)C(=O)O)C(=O)N[C@@H](Cc1c[nH]cn1)C(=O)N[C@@H](CCC(N)=O)C(=O)N[C@@H](CCC(N)=O)C(=O)N[C@@H](CC(=O)O)C(=O)N[C@@H](Cc1ccccc1)C(=O)N[C@H](C(=O)N[C@@H](CC(N)=O)C(=O)N[C@@H](Cc1ccc(O)cc1)C(=O)N[C@@H](CC(C)C)C(=O)N[C@@H](CC(C)C)C(=O)N[C@@H](C)C(=O)N[C@@H](CCC(N)=O)C(=O)NCC(=O)N1CCC[C@H]1C(=O)N[C@@H](CO)C(=O)N[C@@H](CO)C(=O)NCC(=O)N[C@@H](C)C(=O)N1CCC[C@H]1C(=O)N1CCC[C@H]1C(=O)N1CCC[C@H]1C(=O)N[C@@H](CO)C(N)=O)C(C)C [Example 15] (H-Y[dA]EGTFISDYSILLDKK([AEEA-AEEA-γGlu-C20 diacid])HQQDFVNYLLAQGPSSGAPPPS-NH2),> 236
